What follows are molecules tested against Prostaglandin E2 receptor EP2 subtype (Homo sapiens) (UniProt P43116) (assay: compounds shifting PGE2 potency at EP2 – cell-based, human EP2, PGE2 EC50 shift, dose response (AID 1421)). Details: EP2-expressing cells, PGE2 EC50 shift by compound; measured here: PGE2 EC50 at 6.7 uM compound.
Chain of Prostaglandin E2 receptor EP2 subtype (Homo sapiens) (P43116 whole entry, looked up): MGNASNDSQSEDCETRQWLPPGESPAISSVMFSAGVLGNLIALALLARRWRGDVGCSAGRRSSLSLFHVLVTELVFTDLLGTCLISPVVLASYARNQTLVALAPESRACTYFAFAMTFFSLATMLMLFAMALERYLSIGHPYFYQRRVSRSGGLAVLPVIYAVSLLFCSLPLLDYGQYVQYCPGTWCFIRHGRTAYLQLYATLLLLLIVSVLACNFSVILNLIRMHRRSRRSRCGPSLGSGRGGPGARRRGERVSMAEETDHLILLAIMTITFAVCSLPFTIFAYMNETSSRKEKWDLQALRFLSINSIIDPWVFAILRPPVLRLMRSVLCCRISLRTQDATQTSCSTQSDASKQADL

| Structure (SMILES) | PGE2 EC50 with compound [nM] |
| --- | --- |
| CC1CCN(c2nc(-c3ccncc3)nc3ccccc23)CC1 | 1 |
| O=C(O)c1cc2c(s1)-c1ccccc1OC2 | 0.91 |
| O=C(O)c1cc(C(=O)O)cc(N2C(=O)c3ccccc3C2=O)c1 | 0.83 |
| O=P(c1ccccc1)(c1ccccc1)c1nc(-c2ccccc2)oc1NCc1ccccc1 | 0.33 |
| CCN1C(=O)/C(=C2/C=CC=CN2C)SC1=S | 1.64 |
| O=C(Nc1cc(C(F)(F)F)ccc1-n1cncn1)c1ccc(-c2ccccc2)cc1 | 1.15 |
| C=CCn1c(SCC(N)=O)nc(C)cc1=O | 1.07 |
| Cc1sc(NC(=O)Cc2ccc3c(c2)OCO3)nc1-c1ccc2c(c1)CCN2C(=O)c1cccc(F)c1 | 0.97 |
| COc1ncnc2c1oc1nc(CC(C)C)c3c(c12)CCCC3 | 0.91 |
| O=C(OCc1ccccc1Cl)c1ccccc1C(=O)c1ccccc1 | 1.13 |
| Cc1ccccc1C(=O)Nc1ccccc1Sc1ccccc1 | 0.86 |
| Cc1noc(C)c1CSc1ncnc2sc3c(c12)CCC(C)C3 (centres undefined) | 1.06 |
| O=C(O)COc1ccc2occ(C(=O)c3ccccc3)c2c1 | 0.86 |
| CCOc1ccccc1-c1nc2c(C(C)(C)C)nn(C)c2c(=O)[nH]1 | 1.51 |
| FC(F)(F)c1cc(CO[C@H]2CCCN[C@H]2c2ccccc2)cc(C(F)(F)F)c1 | 1.59 |
| CCCC(=O)N1CCCC(c2nc(-c3cccs3)no2)C1 (centres undefined) | 1.2 |
| C=CCOc1ccccc1CNc1ccccc1C | 1.42 |
| c1ccc(Cn2c(-c3ccccc3)nc3nc4ccccc4nc32)cc1 | 1.08 |
| O=C(/C(=C/O)N=Nc1ccccc1)c1cccs1 | 1.19 |
| CCOC(=O)c1c(C2CC2)csc1NC(=O)CSCc1c(C)noc1C | 1.25 |

| Structure (SMILES) | PGE2 EC50 with compound [nM] |
| --- | --- |
| COC(=O)c1c(NC(=O)CSc2nnc(-c3ccco3)n2Cc2ccccc2)sc(C)c1C | 0.85 |
| CCOc1ccc(Cl)cc1S(=O)(=O)n1cnc2cc(C)c(C)cc21 | 1.16 |
| CCOC(=O)c1cc(CC)sc1NC(=O)c1cc(OC)c(OC)c(OC)c1 | 0.82 |
| COC(=O)c1c(NC(=O)C2CC2)sc2c1CCCC2 | 0.95 |
| C=CCSc1nc2ccccc2n1S(=O)(=O)c1ccc(C)cc1 | 0.95 |
| Cc1ccccc1CSCC(=O)Nc1ccccc1-c1ccccc1 | 1.02 |
| O=C(Cc1ccc(F)cc1)Nc1ccccc1Sc1ccccc1 | 0.7 |
| CCc1ccccc1NC1c2ccccc2C(=O)N1c1cc(C)ccn1 (centres undefined) | 2.49 |
| COc1ccc(Cc2n[nH]c(=S)n2Cc2ccccc2)cc1Cl | 1.41 |
| O=C(Nc1ccccc1)/C(=C/c1ccccc1)c1ccccc1 | 2.56 |
| Cc1sc(NC(=O)c2ccccc2F)c(CN2CCCCC2)c1C | 1.09 |
| O=c1c2ccccc2c2ccccc2c(=O)n1Cc1ccco1 | 1.09 |
| Cc1sc(NC(=O)c2ccccc2F)c(CN2CCCCC2C)c1C (centres undefined) | 0.88 |
| O=c1c2ccccc2nc(N2CCCC2)n1-c1ccc(Cl)cc1 | 2.64 |
| CN(C)c1ncc(S(=O)(=O)c2ccc(Cl)cc2)c(-c2ccccc2)n1 | 1.08 |
| CCOP(=O)(c1ccccc1)c1nc(-c2ccccc2Cl)oc1N1CCCCC1 (centres undefined) | 1.02 |
| CCCCC(CC)CN1CN(CC(CC)CCCC)CC(C)(N)C1 (centres undefined) | 1.05 |
| Oc1ccccc1-c1nc(N2CCCC2)c2ccccc2n1 | 0.64 |
| COC(=O)c1ccc(-c2ccco2)n1Cc1ccccc1Cl | 1.03 |
| CCn1nnc(-c2ccccc2NC(=O)c2cc(OC)cc(OC)c2)n1 | 0.95 |

| Structure (SMILES) | PGE2 EC50 with compound [nM] |
| --- | --- |
| C=CCn1c(=S)[nH]c2sccc2c1=O | 1.53 |
| Cc1ccc(Cn2ccc(=O)c(OCc3c(Cl)cccc3Cl)c2C)cc1 | 1.18 |
| COc1ccc(C)cc1NC(=O)C1CC(=O)OC12CCCCC2 (centres undefined) | 0.67 |
| OC(COc1ccccc1)Cn1c2ccccc2c2ccccc21 (centres undefined) | 1.4 |
| CC1CCc2cc(F)cc3c(O)c(C(=O)NCc4ccco4)c(=O)n1c23 (centres undefined) | 0.56 |
| O=C1CCC(c2ccccc2)=NN1Cc1c(F)cccc1Cl | 0.9 |
| Cc1ccc2nc(N3CCC(C(=O)O)CC3)nc(-c3ccccc3)c2c1 | 1.19 |
| C/C(Cl)=C/Cn1c(SC(C)C)nc2c1c(=O)[nH]c(=O)n2C | 0.95 |
| Cc1cc(C)c(S(=O)(=O)c2ccccc2)c(OC(=O)c2c(Cl)cc(Cl)cc2Cl)n1 | 1.27 |
| Cc1ccc(-c2nc3ccccc3nc2Cl)cc1 | 0.49 |
| N#Cc1c(-c2c(Cl)cccc2Cl)noc1/C=C/Nc1ccc(C(=O)O)cc1 | 0.7 |
| O=S(Cc1cc(Sc2ccccc2)nc(-c2ccccc2)n1)c1ccccc1 (centres undefined) | 1.15 |
| CC(C)Oc1ccc(Cc2n[nH]c(=S)n2Cc2ccccc2)cc1Cl | 1.25 |
| Fc1ccc(C(c2ccc(F)cc2)N2CCN(C/C=C/c3ccccc3)CC2)cc1 | 1.19 |
| CCn1c2ccccc2c2nc3ccccc3nc21 | 1.55 |
| Nc1ccc(Cl)cc1C(=O)c1ccccc1Cl | 1.16 |
| CCOc1ccccc1NC1c2ccccc2C(=O)N1c1ccc(C)cn1 (centres undefined) | 0.89 |
| c1ccc(C2=Nc3ccccc3NC(c3ccccc3)C2)cc1 (centres undefined) | 2.58 |
| O=C(O)COc1ccc(/C=C/c2ccc3cccc([N+](=O)[O-])c3n2)cc1 | 2.11 |
